According to patent US4202819A, “2-(3-Alanyl)clavam antibiotic” (Hoffman-La Roche Inc., priority 1979, dated 1980):
Values after ≈ are worked out from the molar mass of the structure shown. Read-outs that look alike come from different tables or passages of the source.

Legend:
Assay in all cases: in vitro antimicrobial activity (MIC), agar diffusion well method
Type in all cases: cell-based
[1] = tested on: Paecilomyces varioti M16 (ATCC 26820)
Experimental: (§1) The in vitro antimicrobial activity of the antibiotic (minimal inhibitory concentration) was determined by the agar diffusion well method. The results expressed in micrograms/ml were as follows: […]

[2] = tested on: Serratia marcescens SM (ATCC 27857)
Experimental: as §1

[3] = tested on: Candida albicans 155 (NRRL 477)
Experimental: as §1

[4] = tested on: Proteus vulgaris 101N (ATCC 6380); details: ATCC6380, BBL Antibiotic Medium "A" Assay Agar
Experimental: as §1

[5] = tested on: Acinetobacter calcoaceticus PCI-3 (ATCC 10153)
Experimental: as §1

[6] = tested on: Mycobacterium phlei 78 (ATCC 355); details: Mycolicibacterium phlei
Experimental: as §1

[7] = tested on: Penicillium digitatum 0184 (ATCC 26821); details: ATCC26821, BBL Antibiotic Medium "A" Assay Agar
Experimental: as §1

[8] = tested on: Bacillus subtilis 558 (NRRL 558)
Experimental: as §1

[9] = tested on: Pseudomonas aeruginosa 56 (ATCC 8709)
Experimental: as §1

[10] = tested on: Saccharomyces cerevisiae 90 (ATCC 4226)
Experimental: as §1

[11] = tested on: Bacillus sp. E (ATCC 27859); details: ATCC27859, BBL Antibiotic Medium "A" Assay Agar
Experimental: as §1

[12] = tested on: Staphylococcus aureus 82 (ATCC 6538 P); details: ATCC6538, BBL Antibiotic Medium "A" Assay Agar
Experimental: as §1

[13] = tested on: Klebsiella pneumoniae 369 (ATCC 27858)
Experimental: as §1

[14] = tested on: Escherichia coli 94 (ATCC 27856)
Experimental: as §1

[15] = tested on: Bacillus sp. TA (ATCC 27860)
Experimental: as §1

[16] = tested on: Sarcina lutea PCI (ATCC 9341); details: Micrococcus luteus
Experimental: as §1

[17] = tested on: Streptomyces cellulosae 097 (ATCC 3313)
Experimental: as §1

[18] = tested on: Streptococcus faecium (ATCC 8043); details: Enterococcus faecium, ATCC8043; BBL Antibiotic Medium "A" Assay Agar
Experimental: as §1

[19] = tested on: Bacillus megaterium 164 (ATCC 8011); details: Priestia megaterium
Experimental: as §1

[20] = tested on: Serratia sp. 101 (ATCC 93)
Experimental: as §1

For N[C@@H](CC1CN2C(=O)CC2O1)C(=O)O (some centres unmarked) [2-(3-alanyl)clavam, 3-(7-oxo-4-oxa-1-azabicyclo[3.2.0]hept-3-yl)alanine], the MIC ([1]; ATCC26820, BBL Antibiotic Medium "A" Assay Agar) was 250 µg/mL (≈ 1.25 mM), the MIC ([1]; ATCC26820, Davis Minimal Agar) was 15.7 µg/mL (≈ 0.0784 mM) and the MIC ([2]; ATCC27857, BBL Antibiotic Medium "A" Assay Agar) was > 1000 µg/mL. For the same compound, the MIC ([2]; ATCC27857, Davis Minimal Agar) was > 500 µg/mL, the MIC ([3]; NRRL477, BBL Antibiotic Medium "A" Assay Agar) was > 1000 µg/mL and the MIC ([3]; NRRL477, Davis Minimal Agar) was 500 µg/mL (≈ 2.5 mM). The MIC [4] was > 1000 µg/mL, the MIC ([5]; ATCC10153, BBL Antibiotic Medium "A" Assay Agar) was > 1000 µg/mL and the MIC ([5]; ATCC10153, Davis Minimal Agar) was > 500 µg/mL. For the same compound, the MIC ([6]; ATCC355, BBL Antibiotic Medium "A" Assay Agar) was > 1000 µg/mL, the MIC ([6]; ATCC355, Davis Minimal Agar) was > 500 µg/mL and the MIC [7] was > 1000 µg/mL. For the same compound, the MIC ([8]; NRRL558, BBL Antibiotic Medium "A" Assay Agar) was > 1000 µg/mL, the MIC ([8]; NRRL558, Davis Minimal Agar) was 0.25 µg/mL (≈ 0.00125 mM) and the MIC ([9]; Davis Minimal Agar) was > 1000 µg/mL. For the same compound, the MIC ([9]; Pseudomonas aeruginosa, ATCC8709, BBL Antibiotic Medium "A" Assay Agar, read-out: MIC) was > 1000 µg/mL, the MIC ([10]; ATCC4226, BBL Antibiotic Medium "A" Assay Agar) was > 1000 µg/mL and the MIC ([10]; ATCC4226, Davis Minimal Agar) was 125 µg/mL (≈ 0.624 mM). The MIC [11] was > 1000 µg/mL, the MIC [12] was > 1000 µg/mL and the MIC ([13]; ATCC27858, BBL Antibiotic Medium "A" Assay Agar) was > 1000 µg/mL. The MIC ([13]; ATCC27858, Davis Minimal Agar) was 62.5 µg/mL (≈ 0.312 mM), the MIC ([14]; ATCC27856, BBL Antibiotic Medium "A" Assay Agar) was > 1000 µg/mL and the MIC ([14]; ATCC27856, Davis Minimal Agar) was 1000 µg/mL (≈ 5 mM). For the same compound, the MIC ([15]; ATCC27860, BBL Antibiotic Medium "A" Assay Agar) was > 1000 µg/mL, the MIC ([15]; ATCC27860, Davis Minimal Agar) was 0.03 µg/mL (≈ 0.00015 mM) and the MIC ([16]; ATCC9341, BBL Antibiotic Medium "A" Assay Agar) was > 1000 µg/mL. The MIC ([16]; ATCC9341, Davis Minimal Agar) was > 500 µg/mL, the MIC ([17]; ATCC3313, BBL Antibiotic Medium "A" Assay Agar) was > 1000 µg/mL and the MIC ([17]; ATCC3313, Davis Minimal Agar) was > 500 µg/mL. For the same compound, the MIC [18] was > 1000 µg/mL, the MIC ([19]; ATCC8011, BBL Antibiotic Medium "A" Assay Agar) was > 1000 µg/mL and the MIC ([19]; ATCC8011, Davis Minimal Agar) was > 500 µg/mL. The MIC ([20]; ATCC93, BBL Antibiotic Medium "A" Assay Agar) was > 1000 µg/mL and the MIC ([20]; ATCC93, Davis Minimal Agar) was 500 µg/mL (≈ 2.5 mM).
